Assay results as given in EP4603105A1, “PHARMACEUTICAL COMPOSITION CONTAINING CYCLIC COMPOUND HAVING SELECTIVE KRAS INHIBITORY EFFECT AGAINST HRAS AND NRAS” (CHUGAI SEIYAKU KABUSHIKI KAISHA, priority 2022, dated 2024).
Where a SMILES comes first, the peptide text is derived from it. Bridges are numbered along the chain shown (N, C = ends). [ ]: non-standard residue; d: D form. The star is where a group is joined. hPhe(3-Cl-4-CF3) = N[C@@H](CCc1ccc(C(F)(F)F)c(Cl)c1)C(=O)O; NPrPhe(4-CF3) = CCCN[C@@H](Cc1ccc(C(F)(F)F)cc1)C(=O)O; NMeGly(cPent) = CN[C@H](C(=O)O)C1CCCC1; Hyp = O=C(O)[C@@H]1C[C@@H](O)CN1; NMeL = CN[C@@H](CC(C)C)C(=O)O; Morpholide = C1CN(*)CCO1; Ac5c = NC1(C(=O)O)CCCC1; Aze = O=C(O)[C@@H]1CCN1; Sar = CNCC(=O)O

Tests used:
[1] = test system: human lung cancer strain NCI-H441; type: cell-based
Outline: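 Step one: dispense the test compound in serial DMSO dilutions. Step three: add the reagent and measure […].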

[2] = target: GDP-bound KRAS wild-type protein (Homo sapiens, UniProt P01116); assay: Binding to KRAS by surface plasmon resonance (SPR), dissociation constant KD; settings: 1:1 binding model
GDP-bound KRAS wild-type protein, sequence (P01116 1-188 isoform P01116-2): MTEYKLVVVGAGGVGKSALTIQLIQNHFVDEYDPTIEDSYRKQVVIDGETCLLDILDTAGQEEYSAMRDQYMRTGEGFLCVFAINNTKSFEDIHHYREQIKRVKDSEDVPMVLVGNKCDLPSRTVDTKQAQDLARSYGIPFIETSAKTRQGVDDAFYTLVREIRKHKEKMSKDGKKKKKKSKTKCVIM
Outline: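 Running buffer contained 10 µM GDP and 10 mM MgCl2 to keep RAS in the GDP state, with 4% DMSO at pH 7.4. Compounds were flowed at 100 µL/min in 75 s steps of rising concentration over captured biotin-Avi RAS at 30°C. Sensorgrams were fitted 1:1 for KD.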

[3] = target: GDP-bound NRAS wild-type protein (Homo sapiens, UniProt P01111); assay: Binding to NRAS by surface plasmon resonance (SPR), KD and KD ratio to KRAS
GDP-bound NRAS wild-type protein, sequence (P01111 whole entry): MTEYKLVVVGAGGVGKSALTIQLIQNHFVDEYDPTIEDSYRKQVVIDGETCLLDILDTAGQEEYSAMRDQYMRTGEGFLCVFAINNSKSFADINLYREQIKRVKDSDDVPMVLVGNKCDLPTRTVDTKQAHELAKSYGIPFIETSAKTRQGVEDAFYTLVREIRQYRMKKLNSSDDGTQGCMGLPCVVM
Outline: (§1)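 Captured GDP-RAS (~100–300 RU) was exposed to increasing compound concentrations, 75 s per step, in running buffer with 10 µM GDP, 10 mM MgCl2 and 4% DMSO at pH 7.4.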

HRAS wild-type protein = HRAS wild-type protein (Homo sapiens, UniProt P01112); assay: Binding to HRAS by surface plasmon resonance (SPR), KD and KD ratio to KRAS
HRAS wild-type protein, sequence (P01112 whole entry): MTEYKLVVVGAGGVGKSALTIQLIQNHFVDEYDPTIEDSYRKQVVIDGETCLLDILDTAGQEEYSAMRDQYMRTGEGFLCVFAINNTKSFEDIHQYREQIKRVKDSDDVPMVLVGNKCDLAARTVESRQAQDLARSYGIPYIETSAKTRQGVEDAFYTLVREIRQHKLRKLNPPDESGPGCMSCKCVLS
Outline: as §1

[4] = ratio of KD for GDP-bound NRAS wild-type protein to KD for KRAS
[5] = ratio of KD for HRAS wild-type protein to KD for KRAS
[6] = ratio of KD value for GDP-bound NRAS wild-type protein to KD value for KRAS (SPR)
[7] = ratio of KD value for HRAS wild-type protein to KD value for KRAS (SPR)

Structure (SMILES) | IC50 [1] [nM] | Kd [2] [nM] | Kd ([2]; Single Cycle Kinetics) [nM] | NRAS /KRAS [3, 4] | HRAS /KRAS (HRAS wild-type protein; [5]) | NRAS /KRAS [3, 6] | HRAS /KRAS (HRAS wild-type protein; [7]) | NRAS /KRAS ([3]; ratio of the KD value with respect to GDP-bound NRAS wild-type protein to the KD value with respect to KRAS) | HRAS /KRAS (HRAS wild-type protein; ratio of the KD value with respect to HRAS wild-type protein to the KD value with respect to KRAS)
CCO[C@@H]1C[C@H]2C(=O)NC3(CC(C)(C)C3)C(=O)N(C)[C@@H](C3CCCC3)C(=O)N(C)[C@H](C(=O)N(C)C)CC(=O)N(C)[C@@H]([C@H](C)OC)C(=O)N[C@@H]([C@@H](C)CC)C(=O)N(C3CC3)CC(=O)N(C)[C@H]3C/C=C\CCN(C3=O)[C@@H](Cc3ccc(C)cc3)C(=O)N(C)CC(=O)N[C@@H](CCc3cc(F)c(C(F)(F)F)c(F)c3)C(=O)N2C1 [PP3193] | 21.1 | 0.35 | – | A (a compound having 10 or more and less than 20 is denoted as A) | A (a compound having 10 or more and less than 20 is denoted as A) | – | – | – | –
CCO[C@@H]1C[C@H]2C(=O)NC3(CC(C)(C)C3)C(=O)N(C)[C@@H](C3CCCC3)C(=O)N(C)[C@H](C(=O)N(C)CC)CC(=O)N(C)[C@@H]([C@@H](C)OC)C(=O)N[C@@H]([C@@H](C)CC)C(=O)N(C)CC(=O)N(C)[C@H]3C/C=C\CCN(C3=O)[C@@H](Cc3ccc(C)cc3)C(=O)N(C)CC(=O)N[C@@H](CCc3cc(F)c(C(F)(F)F)c(F)c3)C(=O)N2C1 [PP3178] | 11.6 | 0.092 | – | A (a compound having 10 or more and less than 20 is denoted as A) | A (a compound having 10 or more and less than 20 is denoted as A) | – | – | – | –
CCCN1C(=O)CN(C)C(=O)[C@@H]2CCN2C(=O)[C@H]([C@@H](C)CC)NC(=O)[C@H](CC(C)C)N(C)C(=O)C[C@@H](C(=O)N2CCOCC2)NC(=O)[C@H](C2CCCC2)N(C)C(=O)C2(CCCC2)NC(=O)[C@@H]2C[C@@H](OCC)CN2C(=O)[C@H](CCc2ccc(C(F)(F)F)c(Cl)c2)NC(=O)CN(C)C(=O)[C@@H]1Cc1ccc(C(F)(F)F)cc1 [PP0341] ([NMeL]I[Aze][Sar][NPrPhe(4-CF3)][Sar][hPhe(3-Cl-4-CF3)][Hyp](Et)[Ac5c][NMeGly(cPent)]D-Morpholide; lactam N-11) | 135 | 1.4 | – | B (a compound having 3 or more and less than 10 is denoted as B) | B (a compound having 3 or more and less than 10 is denoted as B) | – | – | – | –

The remaining molecules from weak to strong by IC50 [1], led by results:

IC50 [1] [nM] | Kd [2] [nM] | Kd ([2]; Single Cycle Kinetics) [nM] | Structure (SMILES) | NRAS /KRAS [3, 4] | HRAS /KRAS (HRAS wild-type protein; [5]) | NRAS /KRAS [3, 6] | HRAS /KRAS (HRAS wild-type protein; [7]) | NRAS /KRAS ([3]; ratio of the KD value with respect to GDP-bound NRAS wild-type protein to the KD value with respect to KRAS) | HRAS /KRAS (HRAS wild-type protein; ratio of the KD value with respect to HRAS wild-type protein to the KD value with respect to KRAS)
57.9 | 0.43 | – | CCO[C@@H]1C[C@H]2C(=O)NC3(CCC3)C(=O)N(C)[C@@H](C3CCCC3)C(=O)N(C)[C@H](C(=O)N(C)C)CC(=O)N(C)[C@@H](CC3CCCC3)C(=O)N[C@@H]([C@@H](C)CC)C(=O)N(C)CC(=O)N(C)[C@H]3C/C=C\CCN(C3=O)[C@@H](Cc3ccc(C)cc3)C(=O)N(C)CC(=O)N[C@@H](CCc3ccc(C4CC4)c(Cl)c3)C(=O)N2C1 [PP2684] | A (a compound having 10 or more and less than 20 is denoted as A) | A (a compound having 10 or more and less than 20 is denoted as A) | – | – | – | –
19.5 | – | 0.72 | CCO[C@@H]1C[C@H]2C(=O)NC3(CC(C)(C)C3)C(=O)N(C)[C@@H](C(CC)CC)C(=O)N(C)[C@H](C(=O)N(C)C)CC(=O)N(C)[C@@H](CC3CC3)C(=O)N[C@@H]([C@@H](C)CC)C(=O)N(C)CC(=O)N(C)[C@H]3C/C=C\CCN(C3=O)[C@@H](Cc3ccc(C)cc3)C(=O)N(C)CC(=O)N[C@@H](CCc3ccc(Cl)c(Cl)c3)C(=O)N2C1 [PP2182] | – | – | – | – | AA (a compound having 20 or more is denoted as AA) | A (a compound having 10 or more and less than 20 is denoted as A)
5 | – | 0.091 | CCC[C@H]1C(=O)N[C@@H]([C@@H](C)CC)C(=O)N(C)CC(=O)N(C)[C@H]2C/C=C\CCN(C2=O)[C@@H](Cc2ccc(C)cc2)C(=O)N(C)CC(=O)N[C@@H](CCc2ccc(C(F)(F)F)c(OC)c2)C(=O)N2C[C@@H](C)C[C@H]2C(=O)NC2(CCC2)C(=O)N(C)[C@@H](C2CCCC2)C(=O)N(C)[C@H](C(=O)N(C)C)CC(=O)N1C [PP1857] | – | – | A (a compound having 10 or more and less than 20 is denoted as A) | B (a compound having 3 or more and less than 10 is denoted as B) | – | –
3.7 | – | 0.08 | CCO[C@@H]1C[C@H]2C(=O)NC3(CCC3)C(=O)N(C)[C@@H](C3CCCC3)C(=O)N(C)[C@H](C(=O)N(C)CC)CC(=O)N(C)[C@@H](CC(F)(F)F)C(=O)N[C@@H]([C@@H](C)CC)C(=O)N(C)CC(=O)N(C)[C@H]3C/C=C\CCN(C3=O)[C@@H](Cc3ccc(C(F)(F)F)cc3)C(=O)N(C)CC(=O)N[C@@H](CCc3cc(F)c(C(F)(F)F)c(F)c3)C(=O)N2C1 [PP1701] | – | – | A (a compound having 10 or more and less than 20 is denoted as A) | A (a compound having 10 or more and less than 20 is denoted as A) | – | –
